Assay [1] has as its target Cyclin-dependent kinase 14 (Homo sapiens) (UniProt O94921). In words: Inhibition of PFTK1 (unknown origin) assessed as remaining activity at 1 uM by Kinome scan method relative to control.
Assay [2] has as its target Serine/threonine-protein kinase BRSK2 (Homo sapiens) (UniProt Q8IWQ3). In words: Inhibition of BRSK2 (unknown origin) assessed as remaining activity at 1 uM by Kinome scan method relative to control.
Assay [3] deals with Interferon-induced, double-stranded RNA-activated protein kinase (Homo sapiens) (UniProt P19525). In words: Inhibition of PRKR (unknown origin) assessed as remaining activity at 1 uM by Kinome scan method relative to control.
The target in assay [4] is Cyclin-dependent kinase 3 (Homo sapiens) (UniProt Q00526). In words: Inhibition of CDK3 (unknown origin) assessed as remaining activity at 1 uM by Kinome scan method relative to control.
Assay [5] addresses Serine/threonine-protein kinase 38 (Homo sapiens) (UniProt Q15208). In words: Inhibition of NDR1 (unknown origin) assessed as remaining activity at 1 uM by Kinome scan method relative to control.
The target of assay [6] is T1, Testis-specific serine/threonine-protein kinase 1 (Homo sapiens) (UniProt Q9BXA7).
T1 sequence (whole entry): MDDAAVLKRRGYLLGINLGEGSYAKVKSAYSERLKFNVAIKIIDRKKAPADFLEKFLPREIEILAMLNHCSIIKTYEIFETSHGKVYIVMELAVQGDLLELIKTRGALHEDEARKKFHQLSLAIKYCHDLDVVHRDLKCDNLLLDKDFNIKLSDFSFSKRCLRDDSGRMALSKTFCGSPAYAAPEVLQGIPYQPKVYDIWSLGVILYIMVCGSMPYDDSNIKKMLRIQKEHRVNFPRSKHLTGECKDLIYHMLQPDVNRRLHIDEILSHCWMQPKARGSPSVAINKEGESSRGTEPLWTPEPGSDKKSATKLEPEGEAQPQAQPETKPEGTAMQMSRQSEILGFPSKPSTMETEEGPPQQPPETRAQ
In words: Inhibition of TSSK1B (unknown origin) assessed as remaining activity at 1 uM by Kinome scan method relative to control.

In assay [7] the target is Mitogen-activated protein kinase kinase kinase 10 (Homo sapiens) (UniProt Q02779). In words: Inhibition of human MAP3K10 assessed as residual activity at 1 uM using histon H2B as substrate in presence of 33P-ATP by ProQinase assay relative to control.
Assay [8] has as its target Serine/threonine-protein kinase Nek3 (Homo sapiens) (UniProt P51956). In words: Inhibition of human NEK3 assessed as residual activity at 1 uM using RBER-CHKtide as substrate in presence of 33P-ATP by ProQinase assay relative to control.
In assay [9] the target is Protein kinase C theta type (Homo sapiens) (UniProt Q04759). In words: Inhibition of PRKCQ (unknown origin) assessed as remaining activity at 1 uM by Kinome scan method relative to control.
The target in assay [10] is Rho-associated protein kinase 2 (Homo sapiens) (UniProt O75116). In words: Inhibition of human ROCK2 assessed as residual activity at 1 uM using RB-S6P as substrate in presence of 33P-ATP by ProQinase assay relative to control.
The target in assay [11] is Calcium/calmodulin-dependent protein kinase type II subunit delta (Homo sapiens) (UniProt Q13557). In words: Inhibition of CAMK2D (unknown origin) assessed as remaining activity at 1 uM by Kinome scan method relative to control.
The target of assay [12] is Interleukin-1 receptor-associated kinase 1 (Homo sapiens) (UniProt P51617). In words: Inhibition of human IRAK1 assessed as residual activity at 1 uM using RB-CTF as substrate in presence of 33P-ATP by ProQinase assay relative to control.
Assay [13] relates to Receptor-type tyrosine-protein kinase FLT3 (Homo sapiens), P36888 [K663Q]. In words: Inhibition of FLT3 K663Q mutant (unknown origin) assessed as remaining activity at 1 uM by Kinome scan method relative to control.
For the next assay, the system named is Mus musculus. In words: In vivo anti-inflammatory activity in Gal/LPS induced mouse assessed as inhibition in TNF-alpha release at 3 mg/kg, po administered for 1 hrs relative to control. In kind it is functional.
In assay [14] the target is Cytoplasmic tyrosine-protein kinase BMX (Homo sapiens) (UniProt P51813). In words: Inhibition of human BMX assessed as residual activity at 1 uM using polyEy as substrate in presence of 33P-ATP by ProQinase assay relative to control.
Assay [15] deals with Tyrosine-protein kinase Yes (Homo sapiens) (UniProt P07947). In words: Inhibition of human YES assessed as residual activity at 1 uM using polyEY as substrate in presence of 33P-ATP by ProQinase assay relative to control.
The subject of assay [16] is Epidermal growth factor receptor (Homo sapiens), P00533 [G719S]. In words: Inhibition of EGFR G719S mutant (unknown origin) assessed as remaining activity at 1 uM by Kinome scan method relative to control.
Assay [17] addresses Serine/threonine-protein kinase SBK1 (Homo sapiens) (UniProt Q52WX2). In words: Inhibition of SBK1 (unknown origin) assessed as remaining activity at 1 uM by Kinome scan method relative to control.
Assay [18] addresses Ribosomal protein S6 kinase alpha-1 (Homo sapiens) (UniProt Q15418). In words: Inhibition of N-terminal kinase domain RPS6KA1 (unknown origin) assessed as remaining activity at 1 uM by Kinome scan method relative to control.
Assay [19] concerns the target T2, Homeodomain-interacting protein kinase 4 (Homo sapiens) (UniProt Q8NE63).
T2 sequence (whole entry): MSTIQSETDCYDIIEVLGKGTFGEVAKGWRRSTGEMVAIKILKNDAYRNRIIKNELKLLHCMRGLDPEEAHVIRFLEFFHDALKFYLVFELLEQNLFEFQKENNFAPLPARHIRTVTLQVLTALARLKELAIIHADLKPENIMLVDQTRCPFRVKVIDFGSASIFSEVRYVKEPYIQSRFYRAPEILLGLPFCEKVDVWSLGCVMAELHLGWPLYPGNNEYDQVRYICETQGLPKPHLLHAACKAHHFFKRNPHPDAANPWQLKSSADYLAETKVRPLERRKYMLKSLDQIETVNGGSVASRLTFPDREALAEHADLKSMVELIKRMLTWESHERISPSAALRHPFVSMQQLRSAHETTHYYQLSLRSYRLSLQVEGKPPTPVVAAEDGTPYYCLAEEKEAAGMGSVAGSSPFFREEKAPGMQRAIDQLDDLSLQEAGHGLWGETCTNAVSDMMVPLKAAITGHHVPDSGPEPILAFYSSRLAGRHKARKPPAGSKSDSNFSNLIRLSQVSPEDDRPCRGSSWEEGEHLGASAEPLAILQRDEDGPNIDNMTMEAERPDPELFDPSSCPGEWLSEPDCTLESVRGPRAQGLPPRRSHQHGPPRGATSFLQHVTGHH
In words: Inhibition of human HIPK4 assessed as residual activity at 1 uM using RBER-IRStide as substrate in presence of 33P-ATP by ProQinase assay relative to control.

Assay [20] deals with Serine/threonine-protein kinase pim-1 (Homo sapiens) (UniProt P11309). In words: Inhibition of PIM1 (unknown origin) assessed as remaining activity at 1 uM by Kinome scan method relative to control.

Structures are written as SMILES.

One may read the inhibition in vivo as the percentage by which the read-out fell short of the control.

Cyclin-dependent kinase 3 (Homo sapiens), sequence (Q00526 whole entry, looked up): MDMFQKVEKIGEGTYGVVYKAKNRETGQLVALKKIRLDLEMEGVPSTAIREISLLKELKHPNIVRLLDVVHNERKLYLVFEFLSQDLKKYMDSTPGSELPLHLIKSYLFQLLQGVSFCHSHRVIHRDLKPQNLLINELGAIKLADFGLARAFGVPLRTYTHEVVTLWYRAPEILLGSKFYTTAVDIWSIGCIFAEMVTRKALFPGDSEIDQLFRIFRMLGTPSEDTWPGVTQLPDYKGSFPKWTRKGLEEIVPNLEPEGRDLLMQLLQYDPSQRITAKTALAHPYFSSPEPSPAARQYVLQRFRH
Serine/threonine-protein kinase 38 (Homo sapiens), sequence (Q15208 2-465 limits assumed): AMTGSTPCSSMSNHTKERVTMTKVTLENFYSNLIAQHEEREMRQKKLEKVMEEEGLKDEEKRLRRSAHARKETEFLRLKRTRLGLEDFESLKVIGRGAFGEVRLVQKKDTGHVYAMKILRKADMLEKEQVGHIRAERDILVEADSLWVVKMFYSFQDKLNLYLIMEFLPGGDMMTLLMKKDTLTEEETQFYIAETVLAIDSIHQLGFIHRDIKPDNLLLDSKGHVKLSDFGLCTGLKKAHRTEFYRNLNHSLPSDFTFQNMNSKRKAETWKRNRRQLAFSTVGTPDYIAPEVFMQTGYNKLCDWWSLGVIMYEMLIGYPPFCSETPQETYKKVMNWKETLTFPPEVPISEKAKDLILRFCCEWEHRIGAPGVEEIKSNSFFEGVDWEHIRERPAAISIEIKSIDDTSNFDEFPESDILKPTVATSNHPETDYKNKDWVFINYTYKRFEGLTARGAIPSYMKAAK
Cyclin-dependent kinase 14 (Homo sapiens), sequence (O94921 whole entry): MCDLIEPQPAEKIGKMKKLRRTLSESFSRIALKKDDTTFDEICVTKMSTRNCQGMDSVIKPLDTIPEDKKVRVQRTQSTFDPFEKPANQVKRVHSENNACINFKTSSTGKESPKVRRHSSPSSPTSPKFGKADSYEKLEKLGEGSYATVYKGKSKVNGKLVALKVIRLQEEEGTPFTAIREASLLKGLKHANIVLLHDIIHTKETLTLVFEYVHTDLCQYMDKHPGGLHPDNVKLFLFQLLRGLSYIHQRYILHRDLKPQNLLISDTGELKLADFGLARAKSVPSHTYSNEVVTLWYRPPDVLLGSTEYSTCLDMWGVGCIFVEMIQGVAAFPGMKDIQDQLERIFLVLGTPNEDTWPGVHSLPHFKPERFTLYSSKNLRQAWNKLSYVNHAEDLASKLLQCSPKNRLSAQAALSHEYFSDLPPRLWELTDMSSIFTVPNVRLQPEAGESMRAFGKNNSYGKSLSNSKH
Interferon-induced, double-stranded RNA-activated protein kinase (Homo sapiens), sequence (P19525 whole entry): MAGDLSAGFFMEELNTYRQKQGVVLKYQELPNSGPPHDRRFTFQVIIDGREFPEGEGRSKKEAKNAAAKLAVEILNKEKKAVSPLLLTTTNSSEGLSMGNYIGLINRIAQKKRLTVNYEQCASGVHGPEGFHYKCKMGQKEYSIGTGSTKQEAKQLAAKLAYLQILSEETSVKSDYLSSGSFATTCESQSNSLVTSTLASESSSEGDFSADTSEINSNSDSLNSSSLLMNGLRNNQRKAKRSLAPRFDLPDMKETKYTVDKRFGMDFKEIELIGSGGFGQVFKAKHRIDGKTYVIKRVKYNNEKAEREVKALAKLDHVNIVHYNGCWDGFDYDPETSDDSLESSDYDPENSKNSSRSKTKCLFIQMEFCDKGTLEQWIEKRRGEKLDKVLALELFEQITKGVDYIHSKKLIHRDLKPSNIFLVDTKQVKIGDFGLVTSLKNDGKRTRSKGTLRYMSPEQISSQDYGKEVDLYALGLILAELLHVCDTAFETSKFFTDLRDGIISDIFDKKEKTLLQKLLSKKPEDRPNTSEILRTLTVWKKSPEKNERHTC
Serine/threonine-protein kinase BRSK2 (Homo sapiens), sequence (Q8IWQ3 whole entry): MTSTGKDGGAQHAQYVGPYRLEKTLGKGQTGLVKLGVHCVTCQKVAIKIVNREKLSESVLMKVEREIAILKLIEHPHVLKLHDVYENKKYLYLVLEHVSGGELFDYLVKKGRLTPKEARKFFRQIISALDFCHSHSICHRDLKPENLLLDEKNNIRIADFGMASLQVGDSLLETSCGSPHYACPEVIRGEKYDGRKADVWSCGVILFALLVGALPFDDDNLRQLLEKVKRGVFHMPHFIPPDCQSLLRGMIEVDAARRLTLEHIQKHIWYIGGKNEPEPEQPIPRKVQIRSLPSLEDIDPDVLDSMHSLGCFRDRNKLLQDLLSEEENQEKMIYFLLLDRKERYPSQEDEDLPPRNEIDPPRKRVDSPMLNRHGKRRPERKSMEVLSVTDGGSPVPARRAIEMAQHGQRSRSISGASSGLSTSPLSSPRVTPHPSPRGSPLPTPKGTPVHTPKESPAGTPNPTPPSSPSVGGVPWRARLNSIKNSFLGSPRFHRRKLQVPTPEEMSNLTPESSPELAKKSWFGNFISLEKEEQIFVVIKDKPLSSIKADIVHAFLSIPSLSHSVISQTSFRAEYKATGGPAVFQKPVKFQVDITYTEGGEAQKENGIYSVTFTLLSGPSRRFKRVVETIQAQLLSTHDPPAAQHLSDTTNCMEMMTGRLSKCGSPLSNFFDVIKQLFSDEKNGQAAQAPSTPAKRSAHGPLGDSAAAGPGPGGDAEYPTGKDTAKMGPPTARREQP
Interleukin-1 receptor-associated kinase 1 (Homo sapiens), sequence (P51617 whole entry, looked up): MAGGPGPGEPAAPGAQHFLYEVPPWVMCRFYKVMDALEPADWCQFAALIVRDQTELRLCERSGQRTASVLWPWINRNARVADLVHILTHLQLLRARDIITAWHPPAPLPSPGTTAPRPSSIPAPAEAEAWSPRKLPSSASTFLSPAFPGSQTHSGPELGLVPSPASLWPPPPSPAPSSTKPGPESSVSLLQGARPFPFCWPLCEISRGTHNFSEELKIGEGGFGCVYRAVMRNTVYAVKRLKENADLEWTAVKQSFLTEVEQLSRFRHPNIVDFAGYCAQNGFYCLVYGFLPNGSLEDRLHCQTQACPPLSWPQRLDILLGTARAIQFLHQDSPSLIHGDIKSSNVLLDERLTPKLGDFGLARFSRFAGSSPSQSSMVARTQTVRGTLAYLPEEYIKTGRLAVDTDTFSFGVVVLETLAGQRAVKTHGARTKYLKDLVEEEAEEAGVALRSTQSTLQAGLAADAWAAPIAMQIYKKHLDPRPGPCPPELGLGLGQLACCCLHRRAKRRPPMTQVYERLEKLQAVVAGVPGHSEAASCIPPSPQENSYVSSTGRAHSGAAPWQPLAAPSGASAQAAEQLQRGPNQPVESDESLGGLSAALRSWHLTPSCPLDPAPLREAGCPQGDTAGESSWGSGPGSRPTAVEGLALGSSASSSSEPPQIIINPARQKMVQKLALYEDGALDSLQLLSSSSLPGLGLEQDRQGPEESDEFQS
Calcium/calmodulin-dependent protein kinase type II subunit delta (Homo sapiens), sequence (Q13557 whole entry): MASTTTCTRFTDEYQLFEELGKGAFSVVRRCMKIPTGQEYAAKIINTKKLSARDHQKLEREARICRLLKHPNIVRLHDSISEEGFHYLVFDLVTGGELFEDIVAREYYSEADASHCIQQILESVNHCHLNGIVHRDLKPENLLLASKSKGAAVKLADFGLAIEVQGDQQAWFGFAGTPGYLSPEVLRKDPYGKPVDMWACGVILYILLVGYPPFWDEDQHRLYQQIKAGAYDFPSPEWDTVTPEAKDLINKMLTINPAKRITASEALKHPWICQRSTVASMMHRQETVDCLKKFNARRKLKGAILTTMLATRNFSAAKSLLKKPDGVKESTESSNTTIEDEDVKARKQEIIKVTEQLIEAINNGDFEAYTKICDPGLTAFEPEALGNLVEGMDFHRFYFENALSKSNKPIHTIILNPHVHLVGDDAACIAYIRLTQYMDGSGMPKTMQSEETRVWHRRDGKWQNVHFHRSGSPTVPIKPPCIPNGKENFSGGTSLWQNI
Serine/threonine-protein kinase SBK1 (Homo sapiens), sequence (Q52WX2 whole entry, the tested form may be a part): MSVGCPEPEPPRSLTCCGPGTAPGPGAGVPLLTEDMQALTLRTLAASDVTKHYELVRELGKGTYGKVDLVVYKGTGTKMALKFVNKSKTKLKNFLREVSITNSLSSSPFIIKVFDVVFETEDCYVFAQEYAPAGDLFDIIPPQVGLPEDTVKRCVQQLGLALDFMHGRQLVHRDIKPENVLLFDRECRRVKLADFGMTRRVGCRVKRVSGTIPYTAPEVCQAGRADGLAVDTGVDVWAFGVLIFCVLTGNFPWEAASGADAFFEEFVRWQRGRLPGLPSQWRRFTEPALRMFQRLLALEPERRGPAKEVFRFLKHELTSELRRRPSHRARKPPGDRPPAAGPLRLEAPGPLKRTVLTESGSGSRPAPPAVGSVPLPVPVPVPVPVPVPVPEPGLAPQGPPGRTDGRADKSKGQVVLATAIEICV
Cytoplasmic tyrosine-protein kinase BMX (Homo sapiens), sequence (P51813 whole entry): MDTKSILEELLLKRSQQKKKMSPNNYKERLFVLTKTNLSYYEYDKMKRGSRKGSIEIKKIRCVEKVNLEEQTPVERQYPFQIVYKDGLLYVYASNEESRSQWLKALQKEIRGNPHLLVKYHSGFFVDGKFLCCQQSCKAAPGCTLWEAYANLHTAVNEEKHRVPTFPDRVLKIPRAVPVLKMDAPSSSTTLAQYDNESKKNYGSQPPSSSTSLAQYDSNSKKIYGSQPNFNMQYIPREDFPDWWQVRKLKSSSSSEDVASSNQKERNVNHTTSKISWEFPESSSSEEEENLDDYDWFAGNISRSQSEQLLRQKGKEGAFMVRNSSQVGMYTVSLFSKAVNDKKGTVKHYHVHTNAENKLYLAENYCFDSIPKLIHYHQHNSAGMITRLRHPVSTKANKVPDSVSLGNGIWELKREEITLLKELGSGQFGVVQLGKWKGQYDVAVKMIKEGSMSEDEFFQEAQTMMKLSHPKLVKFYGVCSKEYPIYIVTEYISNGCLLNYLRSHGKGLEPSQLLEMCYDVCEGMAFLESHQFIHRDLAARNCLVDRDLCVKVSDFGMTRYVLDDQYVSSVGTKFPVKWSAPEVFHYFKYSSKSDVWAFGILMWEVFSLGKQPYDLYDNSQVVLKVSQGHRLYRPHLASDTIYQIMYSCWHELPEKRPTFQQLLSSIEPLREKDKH

Turning to `Nc1ccccc1Nc1ccc2c(c1)CCc1ccccc1C2=O`, the Activity in [1] stood at 94%; in assay [2], 91%; in [3], 86%; in assay [4], 85%; in assay [5], 81%; in [6], 95%.

With `O=C1c2ccc(Nc3ccc(F)cc3F)cc2CCc2ccc(OC[C@H](O)CO)cc21` [Skepinone-L], the Activity in [7] is 101%; in [1] it was 86%; in [8], 85%; in [2], 94%; in assay [9], 83%; in assay [10], 90%. For the same compound, the Activity in [11] is 100%; in assay [3] it was 82%; in assay [4], 96%; in [12], 101%; in assay [13], 98%; in [14], 108%. Further, the Activity in assay [15] was found to be 119%; in assay [16], 94%; in assay [5] it was 87%; in [17], 100%; in [18] it was 100%; in [19] it was 116%. In addition, the Activity amounted to 84% in assay [6] and 100% in assay [20]. Moreover, the inhibition in vivo at 3 mg/kg in the assay on Mus musculus was 77%.

The record behind these values is ChEMBL document CHEMBL5696441 (Nat Chem Biol, 2011).
